Read-outs that look alike come from different tables or passages of the source.
Columns and labels:
[1] = tested on: MCF-7, MDA-MB-231, and MDA-MB-436 cells; assay: Trypan blue exclusion assay; format: cell-based, human; details: dose- and time-dependent
Method: Cells were seeded into 96-well plate and pre-cultured for 24 h, then treated with Eth for 24. Cell cytotoxicity was determined by MTT assay. The absorbance was measured at 490 nm by automated microplated reader (BioTek Instruments, Inc., Winooski, VT, USA), and the cell death rate was calculated as followed: inhibition rate (%) = (average A490 of the control group − average A490 of the experimental group)/(average A490 of the control group − average A490 of the blank group) × 100%. Cell viability was estimated by trypan blue dye exclusion.

Pharmacokinetic study = format: in vivo, Sprague-Dawley rats; details: rat; for MRT last: read-out: MRT0-t
Method: Eleven Sprague–Dawley rats (220–250 g, female) were bought from Hunan SJA Laboratory Animal Co., Ltd. (Changsha, China), and maintained and monitored in a specific pathogen-free environment. They were fasted overnight before the experiments. All rat studies were conducted according to protocols approved by the Animal Ethics Committee of Hubei University of Medicine. Six rats were administered with Eth (2 mg/kg) by intravenous injection, and the other five rats were inoculated with Eth (15 mg/kg) by intragastric injection. Blood samples of […] were collected from the orbit at the time points indicated. The plasma concentrations of Eth were determined by […] (Figure S1). The pharmacokinetic parameters were obtained from the pharmacokinetic software DAS 2.0 (Drug and Statistics Version 2.0).
We then tested the pharmacokinetic features of Eth in Sprague-Dawley rats. To do this, six rats were administered Eth (2 mg/kg) by intravenous (i.v.) injection, and another five rats were inoculated with Eth (15 mg/kg) by intragastric (i.g.) injection. the mean plasma concentration-time profiles are shown in Figures 6J, K, and the main pharmacokinetic parameters are summarized in Table 3. […] Therefore, Eth could be a potential therapeutic agent against BC.

AMPKα = assay: Streptavidin agarose affinity assay; format: binding, human; details: Bio-Eth (4 μM) with or without Eth (12 μM), 3 h
Method: Cell pellets were lysed and the supernatant collection was incubated with indicated antibodies overnight at 4°C, after which protein A/G Plus beads (Santa Cruz Biotechnology) were added and incubated at 4°C for 4 h. The beads were washed 4 times in NETN buffer (1% NP-40, 2 mM EDTA, 40 mM Tris-HCl, 137 mM NaCl, pH 7.4), resuspended in SDS-PAGE loading buffer and boiled for 5 min. For streptavidin agarose affinity assay, cells upon Bio-Eth were lysed; the lysates were incubated with streptavidin agarose, washed and boiled in SDS-PAGE loading buffer. […] Western blot assays were performed.
Figure 4 Eth is a direct activator of AMPK. (A): MCF-7, MDA-MB-231, or MDA-MB-436 cells were treated with increasing concentrations of Eth for 24 h, and AMPK activity assay was performed. (B): The binding mode of Eth docked into AMPK. (C): The binding mode of Eth docked into AMPK. α subunit is green, β subunit is cyan, γ subunit is magenta and Eth is gold. (D): Details of the binding site of Eth in the ADaM site of AMPK. The main residues involved in drug interactions are shown as labeled green sticks. α subunit is green, β subunit is cyan. The pSER-108 was shown in stick and colored by gold. (E) The interaction pattern of Eth with the residues. […] (H): Viability of MCF-7, MDA-MB-231 or MDA-MB-436 cells exposed to Biotin-Eth as determined by MTT assay. […]

[2] = tested on: MCF-7, MDA-MB-231, and MDA-MB-436 cells; assay: Soft-agar colony formation assay; format: cell-based, human; details: 2 weeks
Method: Cells were suspended in 1 mL of L-15 or DMEM containing 0.3% low-melting-point agarose (Amresco, Cleveland, Oh, USA) and 10% FBS, and plated on a bottom layer containing 0.6% agarose and 10% FBS in 6-well plate in triplicate. After 2 weeks, plates were stained with 0.2% gentian violet and the colonies were counted under light microscope (IX70; Olympus Corporation, Tokyo, Japan) after 2 weeks.

[3] = female, Sprague-Dawley, plasma, iv, i.v. (2 mg/kg)
[4] = female, Sprague-Dawley, plasma, po, i.g. (15 mg/kg)

Compound: CCOC1c2c(ccc3c2OCO3)-c2ccc3cc4c(cc3c2N1C)OCO4 (centres unmarked) [Eth, Ethoxysanguinarine]
- viable cells [1]: rapidly reduced viable
- AUC(0-t) (Pharmacokinetic study; [3]): 3640 ± 1560 ng·h/mL
- Cmax (Pharmacokinetic study; [3]): 3580 ± 756 ng/mL
- half-life (Pharmacokinetic study; [3]): 3.54 ± 1.79 h
- clearance (Pharmacokinetic study; female, Sprague-Dawley, plasma, iv, i.v. (2 mg/kg), read-out: CLz (converted)): 9.32 mL/min/kg
- MRT last (Pharmacokinetic study; [3]): 2.18 ± 0.462 h
- AUC(0-t) (Pharmacokinetic study; [4]): 3390 ± 592 ng·h/mL
- Cmax (Pharmacokinetic study; [4]): 498 ± 110 ng/mL
- half-life (Pharmacokinetic study; [4]): 4.05 ± 1.58 h
- MRT last (Pharmacokinetic study; [4]): 7.03 ± 1.01 h
- Tmax (Pharmacokinetic study; female, Sprague-Dawley, plasma, iv, 2 mg/kg, i.v. (2 mg/kg), read-out: Tmax): 0.083 h
- Tmax (Pharmacokinetic study; female, Sprague-Dawley, plasma, iv, 2 mg/kg, i.v. (2 mg/kg), read-out: time of peak plasma concentration (converted)): 0.033 h
- Tmax (Pharmacokinetic study; female, Sprague-Dawley, plasma, po, 15 mg/kg, i.g. (15 mg/kg), read-out: Tmax): 2 h
- BA (Pharmacokinetic study; i.g. (15 mg/kg)): 12.43%
- CLz (Pharmacokinetic study; i.g. (15 mg/kg)): 73.63 ± 14.9 mL/min/kg
- binding of Bio-Eth to AMPKα in presence of unlabeled Eth (AMPKα): significantly attenuated by unlabeled Eth
- clonogenic ability (colony formation) [2]: significantly inhibited the clonogenic ability

From PMC6960228, “Ethoxysanguinarine, a Novel Direct Activator of AMP-Activated Protein Kinase, Induces Autophagy and Exhibits Therapeutic Potential in Breast Cancer Cells” (Frontiers in Pharmacology, 2020)
